Blank lines part the entries; values can stand above or below the molecule they belong to.
Legend:
molinate hydrolase [1] = target: T1, molinate hydrolase (Gulosibacter molinativorax, UniProt G2XLB0); experiment: UV spectrophotometric molinate depletion at […] nm, […] 2-mercaptoethanol; assay type: biochemical
T1 construct: gene molA; recombinant protein with a 32 amino acid purification tag

molinate hydrolase [2] = target: T1, molinate hydrolase; experiment: UV spectrophotometric molinate depletion at […] nm, […] L-cysteine; assay type: biochemical
molinate hydrolase [3] = target: T1, molinate hydrolase; experiment: HPLC assay of molinate depletion with purified recombinant enzyme; competitive inhibition fit; assay type: biochemical
[4] = target: the molecule itself; experiment: crystal structure; recombinant molinate hydrolase co-crystallised with ZnCl2 (4 or 8 mM), vapour diffusion at 20°C, sodium citrate pH 5.6-6.4, 2-propanol, PEG 4000, glycerol; monoclinic C2 with 8 monomers and orthorhombic with 4 monomers in the asymmetric unit

T1 sequence (G2XLB0 entry or part of it): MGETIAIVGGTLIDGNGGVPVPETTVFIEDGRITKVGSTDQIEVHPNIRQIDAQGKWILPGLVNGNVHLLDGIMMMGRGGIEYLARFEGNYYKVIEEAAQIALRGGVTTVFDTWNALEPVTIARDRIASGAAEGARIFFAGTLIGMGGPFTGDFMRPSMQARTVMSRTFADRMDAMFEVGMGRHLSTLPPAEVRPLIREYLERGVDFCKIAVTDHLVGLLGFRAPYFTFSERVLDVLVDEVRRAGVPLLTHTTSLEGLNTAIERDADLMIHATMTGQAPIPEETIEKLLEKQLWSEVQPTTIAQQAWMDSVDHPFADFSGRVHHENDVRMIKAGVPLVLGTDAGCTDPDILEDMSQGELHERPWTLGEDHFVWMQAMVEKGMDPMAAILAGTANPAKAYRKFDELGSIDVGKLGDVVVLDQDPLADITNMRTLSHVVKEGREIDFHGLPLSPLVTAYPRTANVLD

Molecule: OCCS [2-mercaptoethanol]
UV spectrophotometric molinate depletion at 220 nm, 3 mM 2-mercaptoethanol (molinate hydrolase [1]): other thiolated compounds, such as β-mercaptoethanol, also inhibited molinate hydrolase

Molecule: N[C@@H](CS)C(=O)O [L-cysteine]
UV spectrophotometric molinate depletion at 220 nm, 1.5 mM L-cysteine (molinate hydrolase [2]): cysteine also inhibits the enzyme activity, while serine and methionine do not

Ki (molinate hydrolase [3]): 300 µM
Molecule: CCS [ethanethiol]

B1: recombinant molinate hydrolase (enzyme, Gulosibacter molinativorax ON4T)
chain: GETIAIVGGTLIDGNGGVPVPETTVFIEDGRITKVGSTDQIEVHPNIRQIDAQGKWILPGLVNGNVHLLDGIMMMGRGGIEYLARFEGNYYKVIEEAAQIALRGGVTTVFDTWNALEPVTIARDRIASGAAEGARIFFAGTLIGMGGPFTGDFMRPSMQARTVMSRTFADRMDAMFEVGMGRHLSTLPPAEVRPLIREYLERGVDFCKIAVTDHLVGLLGFRAPYFTFSERVLDVLVDEVRRAGVPLLTHTTSLEGLNTAIERDADLMIHATMTGQAPIPEETIEKLLEKQLWSEVQPTTIAQQAWMDSVDHPFADFSGRVHHENDVRMIKAGVPLVLGTDAGCTDPDILEDMSQGELHERPWTLGEDHFVWMQAMVEKGMDPMAAILAGTANPAKAYRKFDELGSIDVGKLGDVVVLDQDPLADITNMRTLSHVVKEGREIDFHGLPLSPLVTAYPRTANVLD
notes: molinate hydrolase (MolA) from Gulosibacter molinativorax ON4T; 1984 residues expected for 4 monomers (496 each, tag included); One Zn2+ per monomer (occupancy set to 0.4) in the deposited structure; A SeMet derivative (from E. coli B834 (DE3), metal-depleted) was also solved, with the same overall structure; also called MolA; source: E. coli JM109 or B834 (DE3), vector pASKmolA, purified …
stoichiometry N [4]: 4
